The source of these data is patent US10344019B2 (priority 2010, dated 2019).

Assay type in all cases: cell-based
Test [1] has as its system HCV 2a Rluc cells (NS5A chimeric genotype 2a JFH-1 replicon with genotype 2a J6 strain NS5A gene, M31 present). Kind of test: HCV replicon reporter assay, genotype 2a J6 (M31 present). Conditions: Hepatitis C virus, read-out: 2a J6. The procedure, abridged: (§1)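 Renilla luciferase HCV replicon cells: dicistronic 1b Con1, 1a H77 or 2a JFH-1 replicons, or a JFH-1 chimera carrying J6 NS5A (M31 present). Compound in DMSO serial dilutions, 72 h incubation, then lysis and luciferase read. EC50 by non-linear regression.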

For test [2], the system named is HCV 1a RLuc cells (dicistronic genotype 1a H77 replicon, RLuc reporter). Kind of test: microbe, parasite or virus in culture. Conditions: Hepatitis C virus, genotype 1a H77 RLuc replicon; read-out: 1a. The procedure, abridged: as §1
For orientation: In antiviral work, replicon cells carry a viral genome segment that copies itself.

Test [3] has as its system HCV 1b RLuc cells (dicistronic genotype 1b Con1 replicon, RLuc reporter). Kind of test: microbe, parasite or virus in culture. Conditions: Hepatitis C virus, read-out: 1b (nM). The procedure, abridged:
as §1

In test [4] the test system is HCV 2b Rluc cells (NS5A chimeric genotype 2a JFH-1 replicon with genotype 2b MD2b-1 NS5A gene, M31 present). As to the kind of experiment: microbe, parasite or virus in culture. Conditions: Hepatitis C virus, read-out: 2b. Summed up:
(§2)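 Replicon cells stably carrying the listed RLuc-encoding dicistronic replicons were seeded and treated with DMSO serial dilutions of compound (10 mM stocks) diluted into culture medium. After 72 h, cells were lysed and Renilla luciferase activity measured. EC50 was derived by non-linear regression.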

In test [5] the test system is HCV 4a Rluc cells (NS5A chimeric genotype 1b Con1 replicon with genotype 4a NS5A gene). As to the kind of experiment: microbe, parasite or virus in culture. Conditions: Hepatitis C virus, read-out: 4a. Summed up: as §2
The subject of test [6] is HCV 2a JFH-1 Rluc cells (dicistronic genotype 2a JFH-1 replicon, RLuc reporter). As to the kind of experiment: microbe, parasite or virus in culture. Conditions: Hepatitis C virus, genotype 2a JFH-1 RLuc replicon; read-out: 2a JFH. Summed up: as §1
Test [7] has as its system HCV 3a RLuc cells (NS5A chimeric genotype 1b Con1 replicon with consensus genotype 3a NS5A gene). As to the kind of experiment: microbe, parasite or virus in culture. Conditions: Hepatitis C virus, read-out: 3a, genotype 3a NS5A chimeric replicon. Summed up: as §2

The structures appear in SMILES notation. Where only a bound is given, the exact number is not on record here.

`CC[C@H](C)[C@H](NC(=O)OC)C(=O)N1CCC[C@H]1c1ncc(-c2ccc(-c3ccc4c(ccc5nc([C@@H]6C[C@H](COC)CN6C(=O)[C@H](NC(=O)C6CC6)c6ccccc6)[nH]c54)c3)cc2)[nH]1` [Example 534]: the EC50 is 0.001 to 0.999 nM in test [1]; 0.001 to 0.999 nM in test [2]; 0.011 nM in test [3]; 0.001 to 0.999 nM in test [4]; 0.001 to 0.99 nM in test [5]; 0.001 to 0.999 nM in test [6].

In the case of `COC[C@H]1C[C@@H](c2nc3ccc4cc(-c5ccc6c(ccc7nc([C@@H]8C[C@H](C)CN8C(=O)[C@@H](NC(=O)OC)C(C)C)[nH]c76)c5)ccc4c3[nH]2)N(C(=O)[C@H](NC(=O)C2CCC2)c2ccccc2)C1` [Example 541], the EC50 in test [1] was 0.001 to 0.999 nM; in test [2], 0.001 to 0.999 nM; in test [3] it was 0.034 nM; in test [4], 0.001 to 0.999 nM; in test [5], 0.001 to 0.99 nM; in test [6], 0.001 to 0.999 nM.

For `COC(=O)N[C@H](C(=O)N1CCC[C@H]1c1ncc(-c2cc3c4c(c2)OCc2cc(-c5cnc([C@@H]6CCCN6C(=O)[C@H](NC(=O)C6CC6)c6ccccc6)[nH]5)cc(c2-4)OC3)[nH]1)C(C)C` [Example 520], the EC50 in test [1] was 0.001 to 0.999 nM; in test [2] it was 0.001 to 0.999 nM; in test [3], 0.033 nM; in test [4], 0.001 to 0.999 nM; in test [5], 0.001 to 0.99 nM; in test [6], 0.001 to 0.999 nM.

On to `COC[C@H]1C[C@@H](c2nc3ccc4cc(-c5ccc6c(ccc7nc([C@@H]8C[C@H]9C[C@H]9N8C(=O)[C@@H](NC(=O)OC)C(C)(C)C)[nH]c76)c5)ccc4c3[nH]2)N(C(=O)[C@H](NC(=O)C2CC2)c2ccccc2)C1` [Example 532], for which the EC50 in test [1] was 0.001 to 0.999 nM; in test [2] it was 0.001 to 0.999 nM; in test [3] it was 0.009 nM; in test [4], 0.001 to 0.999 nM; in test [5], 0.001 to 0.99 nM; in test [6] it was 0.001 to 0.999 nM.

Take `CC[C@H](C)[C@H](NC(=O)OC)C(=O)N1C[C@@H](C)C[C@H]1c1ncc(-c2ccc3c(c2)COc2cc4c(ccc5nc([C@@H]6C[C@H](COC)CN6C(=O)[C@@H](NC(=O)OC)C(C)C)[nH]c54)cc2-3)[nH]1` [Example 642]: the EC50 is 0.001 to 0.999 nM in test [1]; 0.001 to 0.999 nM in test [2]; 0.014 nM in test [3]; 0.001 to 0.999 nM in test [4]; 0.001 to 0.999 nM in test [6].

With `CC[C@H](C)[C@H](NC(=O)OC)C(=O)N1[C@@H]2C[C@@H]2C[C@H]1c1nc2ccc3cc(-c4ccc5c(ccc6nc([C@@H]7C[C@H](COC)CN7C(=O)[C@H](NC(=O)C7CC7)c7ccccc7)[nH]c65)c4)ccc3c2[nH]1` [Example 531], the EC50 in test [1] was 0.001 to 0.999 nM; in test [2], 0.001 to 0.999 nM; in test [3], 0.018 nM; in test [4], 0.001 to 0.999 nM; in test [5], 0.001 to 0.99 nM; in test [6] it was 0.001 to 0.999 nM.

On to `CC[C@H](C)[C@H](NC(=O)OC)C(=O)N1[C@@H]2C[C@@H]2C[C@H]1c1nc2ccc3cc(-c4ccc5c(ccc6nc([C@@H]7C[C@H](COC)CN7C(=O)[C@H](NC(=O)OC)c7ccccc7)[nH]c65)c4)ccc3c2[nH]1` [Example 529], for which the EC50 in test [1] was 0.001 to 0.999 nM; in test [2], 0.001 to 0.999 nM; in test [3], 0.013 nM; in test [4], 0.001 to 0.999 nM; in test [5], 0.001 to 0.99 nM; in test [6], 0.001 to 0.999 nM.

`COC(=O)N[C@H](C(=O)N1C[C@@H](COC(F)F)C[C@H]1c1nc2ccc3cc4c(cc3c2[nH]1)OCc1cc(-c2cnc([C@@H]3CC[C@H](C)N3C(=O)[C@@H](NC(=O)OC)C(C)C)[nH]2)ccc1-4)C(C)C` [Example 631]: the EC50 is 0.001 to 0.999 nM in test [1]; over 5 nM in test [7]; 0.001 to 0.999 nM in test [2]; 0.006 nM in test [3]; 0.001 to 0.999 nM in test [4]; 0.001 to 0.999 nM in test [6].

For the compound `CC[C@H](C)[C@H](NC(=O)OC)C(=O)N1C[C@@H](C)C[C@H]1c1ncc(-c2ccc3c(c2)COc2cc4c(ccc5nc([C@@H]6C[C@H](COC)CN6C(=O)[C@@H](NC(=O)OC)[C@@H](C)OC)[nH]c54)cc2-3)[nH]1` [Example 641], the EC50 in test [1] is 0.001 to 0.999 nM; in test [2], 0.001 to 0.999 nM; in test [3], 0.03 nM; in test [4], 0.001 to 0.999 nM; in test [6], 0.001 to 0.999 nM.

For the compound `COC[C@H]1C[C@@H](c2nc3ccc4cc(-c5ccc6c(ccc7nc([C@@H]8C[C@H](C)CN8C(=O)[C@@H](NC(=O)OC)C(C)C)[nH]c76)c5)ccc4c3[nH]2)N(C(=O)[C@H](NC(=O)C2CC(F)(F)C2)c2ccccc2)C1` [Example 542], the EC50 in test [1] is 0.001 to 0.999 nM; in test [2] it was 0.001 to 0.999 nM; in test [3], 0.05 nM; in test [4], 0.001 to 0.999 nM; in test [5], 0.001 to 0.99 nM; in test [6], 0.001 to 0.999 nM.

With `COC(=O)N[C@H](C(=O)N1C[C@@H](COC(F)F)C[C@H]1c1ncc(-c2ccc3c(c2)COc2cc4c(ccc5nc([C@@H]6CC[C@H](C)N6C(=O)[C@@H](NC(=O)OC)C(C)C)[nH]c54)cc2-3)[nH]1)C(C)C` [Example 632], the EC50 is 0.001 to 0.999 nM in test [1]; 0.001 to 0.999 nM in test [2]; 0.008 nM in test [3]; 0.001 to 0.999 nM in test [4]; 0.001 to 0.999 nM in test [6].

With `CCC(C)[C@H](NC(=O)OC)C(=O)N1C[C@@H](COC)C[C@H]1c1nc2ccc3cc4c(cc3c2[nH]1)OCc1cc(-c2cnc([C@@H]3C[C@H](C)CN3C(=O)[C@@H](NC(=O)OC)[C@@H](C)CC)[nH]2)ccc1-4` (stereo partly shown) [Example 640], the EC50 was 0.001 to 0.999 nM in test [1]; 0.001 to 0.999 nM in test [2]; 0.015 nM in test [3]; 0.001 to 0.999 nM in test [4]; 0.001 to 0.999 nM in test [6].

For the compound `COC[C@H]1C[C@@H](c2nc3ccc4cc5c(cc4c3[nH]2)OCc2cc(-c3ccc4nc([C@@H]6CCCN6C(=O)[C@@H](NC(=O)OC)C(C)C)[nH]c4c3)ccc2-5)N(C(=O)[C@H](NC(=O)OC)c2ccccc2)C1` [Example 556], the EC50 in test [1] was over 44 nM; in test [2] it was 0.001 to 0.999 nM; in test [4], over 44 nM; in test [5] it was 0.001 to 0.99 nM; in test [6] it was 0.001 to 0.999 nM.

Turning to `COC(=O)NC(C(=O)N1C[C@@H](C)C[C@H]1c1nc2ccc3cc4c(cc3c2[nH]1)OCc1cc(-c2cnc([C@@H]3CC[C@H](C)N3C(=O)[C@@H](NC(=O)OC)C(C)C)[nH]2)ccc1-4)[C@H](C)OC` (stereo partly shown) [Example 621], the EC50 was 0.001 to 0.999 nM in test [1]; 0.001 to 0.999 nM in test [2]; 0.013 nM in test [3]; 0.001 to 0.999 nM in test [4]; 0.001 to 0.999 nM in test [6].

In the case of `CC[C@H](C)[C@H](NC(=O)OC)C(=O)N1C[C@@H](COC)C[C@H]1c1nc2ccc3cc4c(cc3c2[nH]1)OCc1cc(-c2cnc([C@@H]3CC[C@H](C)N3C(=O)[C@@H](NC(=O)OC)C(C)C)[nH]2)ccc1-4` [Example 623], the EC50 is 0.001 to 0.999 nM in test [1]; 0.001 to 0.999 nM in test [2]; 0.006 nM in test [3]; 0.001 to 0.999 nM in test [4]; 0.001 to 0.999 nM in test [6].

Turning to `COC[C@H]1C[C@@H](c2nc3ccc4cc5c(cc4c3[nH]2)OCc2cc(-c3cnc([C@@H]4C[C@H](C)CN4C(=O)C(NC(=O)OC)[C@H](C)OC)[nH]3)ccc2-5)N(C(=O)[C@@H](NC(=O)OC)[C@H](C)OC)C1` (stereo partly shown) [Example 620], the EC50 in test [1] was 0.001 to 0.999 nM; in test [2], 0.001 to 0.999 nM; in test [3], 0.081 nM; in test [4], 0.001 to 0.999 nM; in test [6], 0.001 to 0.999 nM.

For `CC[C@H](C)[C@H](NC(=O)OC)C(=O)N1C[C@@H](COC)C[C@H]1c1ncc(-c2ccc3c(c2)COc2cc4c(ccc5nc([C@@H]6CC[C@H](C)N6C(=O)[C@@H](NC(=O)OC)C(C)C)[nH]c54)cc2-3)[nH]1` [Example 619], the EC50 in test [1] is 0.001 to 0.999 nM; in test [2], 0.001 to 0.999 nM; in test [3] it was 0.007 nM; in test [4], 0.001 to 0.999 nM; in test [6], 0.001 to 0.999 nM.

In the case of `CC[C@H](C)[C@H](NC(=O)OC)C(=O)N1[C@@H](C)CC[C@H]1c1ncc(-c2ccc3c(c2)COc2cc4c(ccc5nc([C@@H]6C[C@H](COC)CN6C(=O)[C@@H](NC(=O)OC)C(C)C)[nH]c54)cc2-3)[nH]1` [Example 638], the EC50 in test [1] is 0.001 to 0.999 nM; in test [2] it was 0.001 to 0.999 nM; in test [3], 0.009 nM; in test [4], 0.001 to 0.999 nM; in test [6], 0.001 to 0.999 nM.

Turning to `COC(=O)N[C@H](C(=O)N1[C@@H](C)CC[C@H]1c1ncc(-c2ccc3c(c2)COc2cc4c(ccc5nc([C@@H]6CCCN6C(=O)[C@H](N)c6ccccc6)[nH]c54)cc2-3)[nH]1)C(C)C` [Example 604], the EC50 in test [1] is 0.001 to 0.999 nM; in test [2], 0.001 to 0.999 nM; in test [3] it was 0.02 nM; in test [4], 0.001 to 0.999 nM; in test [6], 0.001 to 0.999 nM.
